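Five compound concentrations were applied to cells in 96-well plates for 48 hours; endpoints were derived by simple linear interpolation of the resulting dose-response curve. GI50 is the concentration that inhibits growth by half.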 The source made the active and inactive calls. Rule as the data show it: active = GI50 up to about 1.1 µM and inactive = higher. Some results are limits rather than exact numbers.

Consider nine compounds from ChEMBL document CHEMBL1201862, “PubChem BioAssay data set” (2004).

Some test systems named below: 786-0; A549; BT-549; DU-145; HCC 2998; K562; LOX IMVI; M14; MCF7; MOLT-4; NCI-H226; NCI/ADR-RES; OVCAR-8; SF-539; SK-MEL-28; SK-MEL-2; SNB-75; T47D; U-251; UO-31.
Experiment in all cases: NCI-60 cell line screen, 48 h

With `Cc1c(OCc2cccc3ccccc23)ccc2c(=O)cc(SCCN3CCOCC3)oc12`, the GI50 in the test with 786-0, with A549, with BT-549, with DU-145, in the test on HCC 2998 and in the test on K562 was > 100 µM (inactive) throughout. Moreover, the GI50 in the test with LOX IMVI, in the test on M14, in the test with MCF7, in the test on MOLT-4, in the test with NCI-H226 and with NCI/ADR-RES was > 100 µM (inactive) each time. In addition, the GI50 with OVCAR-8, with SF-539, in the test with SK-MEL-28, in the test with SK-MEL-2, with SNB-75 and in the test on T47D was > 100 µM (inactive) in each case. In addition, the GI50 with U-251 and in the test with UO-31 was > 100 µM (inactive) in each case.
For the compound `Cn1c(=O)c2c(nc(Nc3ccc(Cl)cc3)n3c(=O)n(-c4ccccc4)c(=O)n23)n(C)c1=O`, the GI50 in the test with 786-0, with A549, with BT-549, in the test with DU-145, with HCC 2998 and with K562 was > 100 µM (inactive) throughout. Also, the GI50 with LOX IMVI, in the test with M14, in the test with MCF7, in the test with MOLT-4, in the test with NCI-H226 and in the test on NCI/ADR-RES was > 100 µM (inactive) each time. The GI50 in the test on OVCAR-8 is > 100 µM (inactive); in the test on SF-539, > 100 µM (inactive); in the test on SK-MEL-28, > 100 µM (inactive); in the test with SK-MEL-2 it was > 100 µM (inactive); in the test with SNB-75, 15.5 µM (inactive); in the test with T47D it was > 100 µM (inactive). In addition, the GI50 in the test on U-251 and in the test with UO-31 was > 100 µM (inactive) in each case.
Regarding `CCOC(=O)/C(=C\c1cccc(C)c1)C(C)=O`, the GI50 in the test on 786-0 was 13.6 µM (inactive); with A549, 30 µM (inactive); with BT-549 it was 10.8 µM (inactive); in the test with DU-145 it was 16.7 µM (inactive); in the test on HCC 2998, 15.1 µM (inactive); with K562, 28.4 µM (inactive). For the same compound, the GI50 in the test on LOX IMVI was 13.6 µM (inactive); with M14, 17.4 µM (inactive); in the test on MCF7, 13.2 µM (inactive); in the test with MOLT-4, 10.2 µM (inactive); with NCI-H226, 24.9 µM (inactive); in the test with NCI/ADR-RES, 19.6 µM (inactive). Further, the GI50 in the test on OVCAR-8 was 21.6 µM (inactive); with SF-539, 16.7 µM (inactive); in the test on SK-MEL-28, 12.6 µM (inactive); in the test on SK-MEL-2, 10.1 µM (inactive); in the test with SNB-75 it was 4.94 µM (inactive); in the test on T47D, 11.1 µM (inactive). Besides, the values for the GI50 in the test with U-251 and in the test with UO-31 were 13.1 µM (inactive) and 13.8 µM (inactive), respectively.
As to `CNCCCNC(=S)Cn1cc(C)c(=O)[nH]c1=O`, the GI50 in the test on 786-0 was > 44.3 µM (inactive); with A549 it was > 29.9 µM (inactive); in the test on BT-549, > 61.9 µM (inactive); in the test with DU-145, > 52.2 µM (inactive); in the test on HCC 2998, > 52.6 µM (inactive); in the test with K562, > 42.2 µM (inactive). Further, the GI50 was > 34.2 µM (inactive) with LOX IMVI; > 53 µM (inactive) with M14; > 31.8 µM (inactive) in the test with MCF7; > 35.2 µM (inactive) with MOLT-4; > 59 µM (inactive) with NCI-H226; > 57.8 µM (inactive) in the test on NCI/ADR-RES. Also, the GI50 is > 26.6 µM (inactive) with OVCAR-8; > 20.1 µM (inactive) in the test on SF-539; > 56.9 µM (inactive) with SK-MEL-28; > 45.2 µM (inactive) with SK-MEL-2; > 54.2 µM (inactive) in the test on SNB-75; > 100 µM (inactive) with T47D. Further, the GI50 in the test with U-251 was > 47.5 µM (inactive); with UO-31, > 48 µM (inactive).
In the case of `N#Cc1c(=O)c2cc([N+](=O)[O-])ccc2n2c1[nH]c1ccccc12`, the GI50 was 6.75 µM (inactive) in the test with 786-0; 7.57 µM (inactive) with A549; 9.08 µM (inactive) in the test on BT-549; 8.05 µM (inactive) in the test with DU-145; 7.21 µM (inactive) with HCC 2998; 3.78 µM (inactive) in the test on K562. The GI50 with LOX IMVI is 5.24 µM (inactive); in the test on M14 it was 7.96 µM (inactive); in the test on MCF7, 6.92 µM (inactive); in the test with MOLT-4 it was 4.83 µM (inactive); in the test with NCI-H226, 4.58 µM (inactive); with NCI/ADR-RES, 3.54 µM (inactive). Besides, the GI50 in the test with OVCAR-8 is 5.27 µM (inactive); in the test with SF-539, 17.3 µM (inactive); in the test on SK-MEL-28, 4.48 µM (inactive); in the test on SK-MEL-2, 5.25 µM (inactive); in the test with SNB-75, 10.7 µM (inactive); with T47D, 4.44 µM (inactive). In addition, the GI50 was 7.71 µM (inactive) in the test on U-251 and 4.3 µM (inactive) in the test on UO-31.
Take `CCCCCCCCC[C@@H]1C[C@@H]2CCC3C(C(=O)OC)=C(C)N=C(N1)N32` (stereo not given in full): the GI50 in the test on 786-0 is 4.22 µM (inactive); in the test with A549 it was 12.3 µM (inactive); in the test on BT-549, 10.6 µM (inactive); in the test with DU-145 it was 6.41 µM (inactive); in the test on HCC 2998, 2.86 µM (inactive); with K562, 5.25 µM (inactive). Also, the GI50 in the test on LOX IMVI is 9.86 µM (inactive); with M14, 5.46 µM (inactive); in the test with MCF7, 3.72 µM (inactive); with MOLT-4, 8.22 µM (inactive); with NCI-H226, 6.98 µM (inactive); with NCI/ADR-RES, 18.7 µM (inactive). Further, the GI50 was 4.79 µM (inactive) in the test on OVCAR-8; 3.29 µM (inactive) with SF-539; 21 µM (inactive) with SK-MEL-28; 11.1 µM (inactive) in the test with SK-MEL-2; 5.71 µM (inactive) with SNB-75; 10.6 µM (inactive) in the test on T47D. Besides, the GI50 in the test with U-251 was 3.27 µM (inactive); with UO-31, 15.3 µM (inactive).
For `N#Cc1c(-c2ccc([N+](=O)[O-])cc2)cc(-c2ccc(Nc3ccnc4cc(C(F)(F)F)ccc34)cc2)nc1N`, the GI50 in the test on 786-0 is 4.1 µM (inactive); in the test on A549, 13 µM (inactive); with BT-549, 37.2 µM (inactive); in the test on DU-145, 13.1 µM (inactive); in the test on HCC 2998, 14.1 µM (inactive); with K562 it was 3.64 µM (inactive). Moreover, the GI50 in the test on LOX IMVI is 3.64 µM (inactive); with M14, 11.7 µM (inactive); in the test on MCF7, 2.59 µM (inactive); in the test with MOLT-4, 4.34 µM (inactive); in the test on NCI-H226, > 48.3 µM (inactive); with NCI/ADR-RES it was 8.89 µM (inactive). Besides, the GI50 with OVCAR-8 is 20.1 µM (inactive); with SF-539, 26.9 µM (inactive); in the test on SK-MEL-28, 25.5 µM (inactive); in the test with SK-MEL-2, > 41.3 µM (inactive); in the test with SNB-75, 20.4 µM (inactive); in the test with T47D, 7.89 µM (inactive). Moreover, the GI50 in the test on U-251 is 6.34 µM (inactive); in the test with UO-31, 14.7 µM (inactive).
Take `O=C(C/C(=N/O)C(F)(F)F)c1cccs1`: the GI50 in the test with 786-0, in the test with A549, with BT-549, in the test on DU-145, in the test with HCC 2998 and in the test on K562 was > 100 µM (inactive) in each case. Moreover, the GI50 with LOX IMVI, in the test with M14, in the test on MCF7, with MOLT-4, in the test with NCI-H226 and in the test with NCI/ADR-RES was > 100 µM (inactive) in each case. Besides, the GI50 with OVCAR-8 is > 100 µM (inactive); with SF-539, > 100 µM (inactive); with SK-MEL-28 it was > 100 µM (inactive); in the test with SK-MEL-2, 30.8 µM (inactive); in the test on SNB-75, > 100 µM (inactive); in the test with T47D, > 100 µM (inactive). Also, the GI50 with U-251 and in the test with UO-31 was > 100 µM (inactive) throughout.
With `CCc1nc(N)nc(N)c1-c1ccc([N+](=O)[O-])c(Cl)c1`, the GI50 was 1.77 µM (inactive) with 786-0; 0.416 µM (active) in the test on A549; 14.9 µM (inactive) in the test with BT-549; 10.8 µM (inactive) in the test with DU-145; 10 µM (inactive) in the test on HCC 2998; 0.227 µM (active) with K562. Further, the GI50 was 1.44 µM (inactive) with LOX IMVI; 2.65 µM (inactive) in the test with M14; 4.55 µM (inactive) with MCF7; 4.27 µM (inactive) in the test on MOLT-4; 30.4 µM (inactive) in the test on NCI-H226; 5.83 µM (inactive) in the test on NCI/ADR-RES. The GI50 in the test on OVCAR-8 is 3.7 µM (inactive); with SF-539, 3.76 µM (inactive); with SK-MEL-28, 36.5 µM (inactive); with SK-MEL-2, 34.7 µM (inactive); in the test with SNB-75, 28.2 µM (inactive); in the test on T47D, 39.5 µM (inactive). For the same compound, the GI50 in the test on U-251 is 3.1 µM (inactive); in the test with UO-31 it was 9.04 µM (inactive).
